Experimental data: PMC8648042, “IMB-XMA0038, a new inhibitor targeting aspartate-semialdehyde dehydrogenase of Mycobacterium tuberculosis” (Emerging Microbes & Infections, 2021)
pKd: −log10 of the molar value.

Target: T1, Aspartate-semialdehyde dehydrogenase (MtASADH) (Mycobacterium tuberculosis, UniProt P9WNX5)
T1 construct: gene asd
Experiment: SPR with MtASADH immobilized on CM5 chip; also IC50 […] in LysC-coupled NADPH enzyme assay
Type: binding

T1 sequence (P9WNX5 whole entry, looked up): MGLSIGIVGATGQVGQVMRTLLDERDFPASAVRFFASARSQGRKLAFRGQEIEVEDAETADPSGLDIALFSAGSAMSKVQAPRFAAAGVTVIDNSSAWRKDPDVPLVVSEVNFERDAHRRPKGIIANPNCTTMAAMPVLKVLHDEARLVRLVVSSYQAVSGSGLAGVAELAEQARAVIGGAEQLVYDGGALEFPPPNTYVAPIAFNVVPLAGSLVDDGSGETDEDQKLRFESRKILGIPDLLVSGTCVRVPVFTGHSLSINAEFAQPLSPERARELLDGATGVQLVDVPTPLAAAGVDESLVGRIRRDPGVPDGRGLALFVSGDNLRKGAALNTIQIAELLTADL

O=C(Nc1nnc(C2CCCO2)o1)c1ccc([N+](=O)[O-])o1 (stereo not shown) [IMB-XMA0038, 5-nitro-N-(5-(tetrahydrofuran-2-yl)-1,3,4-oxadiazol-2-yl)furan-2-carboxamide]
pKd: 3.44
